From ChEMBL document CHEMBL1201862, “PubChem BioAssay data set” (2004)
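96-well plates; 48 h exposure; 5 concentrations. Endpoints by linear interpolation between flanking doses. Not reached: highest tested concentration assigned. The concentration for 50% growth inhibition is given as GI50.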 Activity calls are given as the source filed them. Cut-off read from the data, not from the text of the source: active = GI50 up to about 1.1 µM and inactive = higher.

Key:
Assay in all cases: NCI-60 cell line screen, 48 h
CCRF-CEM = test system: CCRF-CEM
TK-10 = test system: TK-10
SF-268 = test system: SF-268
NCI-H522 = test system: NCI-H522
IGROV-1 = test system: IGROV-1
A549 = test system: A549
HCC 2998 = test system: HCC 2998
MCF7 = test system: MCF7
MOLT-4 = test system: MOLT-4
Hs-578T = test system: Hs-578T
OVCAR-5 = test system: OVCAR-5
SF-295 = test system: SF-295
NCI/ADR-RES = test system: NCI/ADR-RES
SW-620 = test system: SW-620
NCI-H23 = test system: NCI-H23
SR = test system: SR
SN12C = test system: SN12C
BT-549 = test system: BT-549
MDA-N = test system: MDA-N
HOP-92 = test system: HOP-92
CAKI-1 = test system: CAKI-1
U-251 = test system: U-251
KM12 = test system: KM12
SK-MEL-5 = test system: SK-MEL-5
HOP-62 = test system: HOP-62
NCI-H460 = test system: NCI-H460
DU-145 = test system: DU-145
OVCAR-8 = test system: OVCAR-8
786-0 = test system: 786-0
HT-29 = test system: HT-29
SK-OV-3 = test system: SK-OV-3
ACHN = test system: ACHN
MDA-MB-435 = test system: MDA-MB-435
RPMI-8226 = test system: RPMI-8226
A498 = test system: A498
Malme-3M = test system: Malme-3M
K562 = test system: K562
UACC-257 = test system: UACC-257
OVCAR-4 = test system: OVCAR-4
SNB-19 = test system: SNB-19
RXF 393 = test system: RXF 393
OVCAR-3 = test system: OVCAR-3
SF-539 = test system: SF-539
SK-MEL-2 = test system: SK-MEL-2
PC-3 = test system: PC-3
HCT-116 = test system: HCT-116
NCI-H226 = test system: NCI-H226
HCT-15 = test system: HCT-15
UO-31 = test system: UO-31
SNB-75 = test system: SNB-75
UACC-62 = test system: UACC-62
COLO 205 = test system: COLO 205
MDA-MB-231 = test system: MDA-MB-231
EKVX = test system: EKVX
HL-60 = test system: HL-60
M14 = test system: M14
T47D = test system: T47D
SK-MEL-28 = test system: SK-MEL-28
LOX IMVI = test system: LOX IMVI

## COc1cc(=O)n2c3ccccc3n(C)c2c1C#N
CCRF-CEM
  GI50: > 100 µM (inactive)
TK-10
  GI50: > 100 µM (inactive)
SF-268
  GI50: > 100 µM (inactive)
NCI-H522
  GI50: > 100 µM (inactive)
IGROV-1
  GI50: > 100 µM (inactive)
A549
  GI50: > 100 µM (inactive)
HCC 2998
  GI50: > 100 µM (inactive)
MCF7
  GI50: > 100 µM (inactive)
MOLT-4
  GI50: 45.3 µM (inactive)
Hs-578T
  GI50: > 100 µM (inactive)
OVCAR-5
  GI50: > 100 µM (inactive)
SF-295
  GI50: 22.6 µM (inactive)
NCI/ADR-RES
  GI50: > 100 µM (inactive)
SW-620
  GI50: > 100 µM (inactive)
NCI-H23
  GI50: > 100 µM (inactive)
SR
  GI50: > 100 µM (inactive)
SN12C
  GI50: > 100 µM (inactive)
BT-549
  GI50: > 100 µM (inactive)
MDA-N
  GI50: > 100 µM (inactive)
HOP-92
  GI50: > 100 µM (inactive)
CAKI-1
  GI50: > 100 µM (inactive)
U-251
  GI50: > 100 µM (inactive)
KM12
  GI50: > 100 µM (inactive)
SK-MEL-5
  GI50: > 100 µM (inactive)
HOP-62
  GI50: > 100 µM (inactive)
NCI-H460
  GI50: > 100 µM (inactive)
DU-145
  GI50: > 100 µM (inactive)
OVCAR-8
  GI50: > 100 µM (inactive)
786-0
  GI50: > 100 µM (inactive)
HT-29
  GI50: 74.3 µM (inactive)
SK-OV-3
  GI50: > 100 µM (inactive)
ACHN
  GI50: 76.9 µM (inactive)
MDA-MB-435
  GI50: > 100 µM (inactive)
RPMI-8226
  GI50: > 100 µM (inactive)
A498
  GI50: > 100 µM (inactive)
Malme-3M
  GI50: > 100 µM (inactive)
K562
  GI50: > 100 µM (inactive)
UACC-257
  GI50: > 100 µM (inactive)
OVCAR-4
  GI50: > 100 µM (inactive)
SNB-19
  GI50: > 100 µM (inactive)
RXF 393
  GI50: > 100 µM (inactive)
OVCAR-3
  GI50: > 100 µM (inactive)
SF-539
  GI50: > 100 µM (inactive)
SK-MEL-2
  GI50: > 100 µM (inactive)
PC-3
  GI50: > 100 µM (inactive)
HCT-116
  GI50: 43.8 µM (inactive)
NCI-H226
  GI50: > 100 µM (inactive)
HCT-15
  GI50: > 100 µM
UO-31
  GI50: > 100 µM (inactive)
SNB-75
  GI50: > 100 µM (inactive)
UACC-62
  GI50: > 100 µM (inactive)
COLO 205
  GI50: > 100 µM (inactive)
MDA-MB-231
  GI50: > 100 µM (inactive)
EKVX
  GI50: > 100 µM (inactive)
HL-60
  GI50: > 100 µM (inactive)
M14
  GI50: > 100 µM (inactive)

## COc1ccc(Oc2cccc(C3C4C(=O)N(c5ccc(C)c(Cl)c5)C(=O)C4ON3C(C(N)=O)c3ccccc3)c2)cc1 (stereo unspecified)
CCRF-CEM
  GI50: 14 µM (inactive)
TK-10
  GI50: 19.4 µM (inactive)
SF-268
  GI50: 18.3 µM (inactive)
NCI-H522
  GI50: 10.6 µM (inactive)
IGROV-1
  GI50: 18.8 µM (inactive)
A549
  GI50: 20.9 µM (inactive)
MCF7
  GI50: 15.3 µM (inactive)
MOLT-4
  GI50: 11.8 µM (inactive)
Hs-578T
  GI50: 17.9 µM (inactive)
OVCAR-5
  GI50: 17.7 µM (inactive)
SF-295
  GI50: 35.9 µM (inactive)
SW-620
  GI50: 20.9 µM (inactive)
NCI-H23
  GI50: 8.55 µM (inactive)
SR
  GI50: 9.98 µM (inactive)
SN12C
  GI50: 12.4 µM (inactive)
MDA-N
  GI50: 10.4 µM (inactive)
HOP-92
  GI50: 24 µM (inactive)
CAKI-1
  GI50: 21 µM (inactive)
U-251
  GI50: 16.6 µM (inactive)
KM12
  GI50: 18 µM (inactive)
SK-MEL-5
  GI50: 9.55 µM (inactive)
T47D
  GI50: 9.23 µM (inactive)
HOP-62
  GI50: 35.2 µM (inactive)
NCI-H460
  GI50: 14.8 µM (inactive)
DU-145
  GI50: 9.59 µM (inactive)
OVCAR-8
  GI50: 17.5 µM (inactive)
786-0
  GI50: 16.1 µM (inactive)
HT-29
  GI50: 9.33 µM (inactive)
SK-OV-3
  GI50: > 50 µM (inactive)
ACHN
  GI50: 23.5 µM (inactive)
MDA-MB-435
  GI50: 15.5 µM (inactive)
A498
  GI50: 38.5 µM (inactive)
Malme-3M
  GI50: 15.8 µM (inactive)
K562
  GI50: 16.6 µM (inactive)
UACC-257
  GI50: 10.7 µM (inactive)
OVCAR-4
  GI50: 18.9 µM (inactive)
SNB-19
  GI50: 24 µM (inactive)
RXF 393
  GI50: 7.6 µM (inactive)
OVCAR-3
  GI50: 16.7 µM (inactive)
SF-539
  GI50: 10.4 µM (inactive)
SK-MEL-28
  GI50: 41.5 µM (inactive)
SK-MEL-2
  GI50: 11.2 µM (inactive)
PC-3
  GI50: 18.9 µM (inactive)
HCT-116
  GI50: 14 µM (inactive)
NCI-H226
  GI50: 15.6 µM (inactive)
LOX IMVI
  GI50: 13.7 µM (inactive)
HCT-15
  GI50: 8.39 µM
UO-31
  GI50: 29.6 µM (inactive)
SNB-75
  GI50: 6.08 µM (inactive)
UACC-62
  GI50: 10.9 µM (inactive)
COLO 205
  GI50: 15.1 µM (inactive)
MDA-MB-231
  GI50: 34 µM (inactive)
EKVX
  GI50: 10.4 µM (inactive)
HL-60
  GI50: 12.6 µM (inactive)
M14
  GI50: 13.1 µM (inactive)
